The subject of this experiment is renal cancer patients. As to the kind of experiment: Clinical outcome of renal cancer patients treated with targeted drugs (nibs). The following applies: for # of transcriptomes taken from responders: sustained stabilization of tumor progress; for # of transcriptomes taken from non-responders: tumor progression despite the applied treatment. The experiment is classed as in vivo, human. The method, then: A set of samples taken from the tumors of renal cancer patients who were treated at Clinical Hospital of the Hertzen Cancer Institute in Moscow. These samples were examined using the Illumina HT-12 platform at Medical Center of Lethbridge University in Canada. As a reference normal renal tissue, the dataset GSE49972 (Karlsson et al., 2014) obtained on the same platform, was used. […] The overview of renal cancer transcriptomes selected for the V-dataset, is shown below in Table 3.
As an example, we list here the details of case history for one of the patient, who has been a responder to Sunitinib treatment.
Person; the clear cell cancer in left kidney; disease progression stage T3N0M1, distant metastases to lungs and skeleton. Surgery has not been performed due to the overall progression of the disease. Before the chemotherapy for distant metastases, the patient received the symptomatic radiation therapy of 30 Gy on the pelvic and femoral zone. Two months after the patient received the neo-adjuvant Sunitinib therapy in overall dose of 50 mg.
As long as two years after the treatment, the patient was still alive and continued to receive the adjuvant Sunitinib therapy.

Regarding `CCN(CC)CCNC(=O)c1c(C)[nH]c(/C=C2\C(=O)Nc3ccc(F)cc32)c1C` [Sunitinib], the “# of transcriptomes taken from responders” value is reported as 5 and the “# of transcriptomes taken from non-responders” value is 10.

In the case of `Cc1ccc(Nc2nccc(N(C)c3ccc4c(C)n(C)nc4c3)n2)cc1S(N)(=O)=O` [Pazopanib], the “# of transcriptomes taken from responders” value was 4 and the “# of transcriptomes taken from non-responders” value was 3.

`CNC(=O)c1cc(Oc2ccc(NC(=O)Nc3ccc(Cl)c(C(F)(F)F)c3)cc2)ccn1` [Sorafenib]: the “# of transcriptomes taken from responders” value amounted to 13 and the “# of transcriptomes taken from non-responders” value is reported as 15.

The values above are taken from patent publication US20170193176A1, “System, Method, and Software for Improved Drug Efficacy and Safety in a Patient” (Insilico Medicine, Inc., priority 2015, published 2017).
